Patent US20240024228A1, “Apremilast Ophthalmic Compositions” (APRAMITHA INNOVATIONS PRIVATE LIMITED, priority 2020, published 2024)

Columns and labels:
[1] = Solubility study of Apremilast in surfactants and their combinations; type: physicochemical
Method: The solubility of Apremilast was evaluated in various surfactants and their combinations:
About 50 mg of Apremilast (0.05% w/w) was weighed and dissolved in surfactant and or combination of surfactants at different ratios by heating at a temperature below 85° C. After complete solubilization of the Apremilast in the solubilizer matrix, purified water (q.s to 100%) was added, vortexed for 2 minutes and kept aside.

[2] = cited from earlier work
[3] = dissolved by heating below 85° C., water q.s., observed 24 hrs to 1 week

SMILES: CCOc1cc([C@@H](CS(C)(=O)=O)N2C(=O)c3cccc(NC(C)=O)c3C2=O)ccc1OC [Apremilast, N-[2-[(1S)-1-(3-ethoxy-4-methoxyphenyl)-2-(methylsulfonyl)ethyl]-1,3-dioxo-2,3-dihydro-1H-isoindol-4-yl]acetamide]
- Solubility in combination of surfactants (Tween 80 and Kolliphore E L) with PEG400 [1]: good solubility
- Stabilization of API ([1]; PEG400 in combination with Tween 80/Kolliphore E L): stabilized
- Surfactant concentration sufficient to stabilise Apremilast ([1]; Tween 80 / kolliphor E. L, 0.001-0.9% w/w of Apremilast): 4 % w/w
- Precipitation of Apremilast ([1]; below 2-8% Tween80 / kolliphor E. L concentration): precipitated out
- Appearance of solution / prevention of precipitation ([1]; combination of Tween 80 and kolliphor E. L): clear solution
- Solubility in Tween 80 [1, 3]: good solubility
- Solubility in kolliphor E. L [1, 3]: good solubility
- Precipitation of Apremilast ([1]; with 2-8% Tween80 and 2-8% kolliphor E. L): not observed
- Precipitation of Apremilast ([1]; with 5% PEG 400 alone): precipitation was observed
- Solubility in polar solvents ([2]; polar solvents): minimal solubility
- Solubility in water ([2]; water): insolubility
